The values below come from publication PMC10351538 (Journal of Enzyme Inhibition and Medicinal Chemistry, 2023).

In the assay the target is triosephosphate isomerase (TcTIM WT) (Trypanosoma cruzi, UniProt P52270). Nature of the assay: coupled enzyme assay. It counts as biochemical. To be noted: read-out: approximately 95% inactivation.
triosephosphate isomerase (TcTIM WT), sequence (P52270 whole entry): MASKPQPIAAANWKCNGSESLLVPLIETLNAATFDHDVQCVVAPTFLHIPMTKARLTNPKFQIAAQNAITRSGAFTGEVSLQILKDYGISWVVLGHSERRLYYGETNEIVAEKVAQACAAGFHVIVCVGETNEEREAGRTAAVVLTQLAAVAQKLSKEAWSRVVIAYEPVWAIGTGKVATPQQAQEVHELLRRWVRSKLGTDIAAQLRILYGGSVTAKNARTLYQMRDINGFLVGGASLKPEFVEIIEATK

For `COCCCOc1ccnc(C[S+]([O-])c2nc3ccccc3[nH]2)c1C` (stereo not shown) [Rbz, rabeprazole], the IC95 was approximately 75 µM.
